# Numbers after ± are expanded uncertainties.
# Tests used:
# [1] = 101.33 kPa, Liquid, Vibrating tube method
# [2] = xn = mol fraction of the nth substance listed; conditions: 101 kPa, Liquid, Vibrating tube method
structure (smiles),measurement,setting,value
CCCCN [1-butanamine],mass density,[1]; 303.15 K,728.65 ± 0.41 kg/m3
same,mass density,[1]; 313.15 K,719.17 ± 0.41 kg/m3
CCCCN [1-butanamine] + C1CCCCC1,mass density,"[2]; 303.15 K, x1 = 0.0097",768.39 ± 0.25 kg/m3
same,mass density,"[2]; 303.15 K, x1 = 0.0197",767.7 ± 0.25 kg/m3
same,mass density,"[2]; 303.15 K, x1 = 0.0282",767.1 ± 0.25 kg/m3
same,mass density,"[2]; 303.15 K, x1 = 0.038",766.38 ± 0.26 kg/m3
same,mass density,"[2]; 303.15 K, x1 = 0.0471",765.76 ± 0.26 kg/m3
same,mass density,"[2]; 303.15 K, x1 = 0.0581",764.98 ± 0.26 kg/m3
same,mass density,"[2]; 303.15 K, x1 = 0.0674",764.35 ± 0.26 kg/m3
same,mass density,"[2]; 303.15 K, x1 = 0.0724",764.08 ± 0.26 kg/m3
same,mass density,"[2]; 303.15 K, x1 = 0.0873",763.14 ± 0.26 kg/m3
same,mass density,"[2]; 313.15 K, x1 = 0.0097",758.82 ± 0.25 kg/m3
same,mass density,"[2]; 313.15 K, x1 = 0.0197",758.12 ± 0.25 kg/m3
same,mass density,"[2]; 313.15 K, x1 = 0.0282",757.54 ± 0.26 kg/m3
same,mass density,"[2]; 313.15 K, x1 = 0.038",756.91 ± 0.26 kg/m3
same,mass density,"[2]; 313.15 K, x1 = 0.0471",756.3 ± 0.26 kg/m3
same,mass density,"[2]; 313.15 K, x1 = 0.0581",755.61 ± 0.26 kg/m3
same,mass density,"[2]; 313.15 K, x1 = 0.0674",754.91 ± 0.26 kg/m3
same,mass density,"[2]; 313.15 K, x1 = 0.0724",754.62 ± 0.26 kg/m3
same,mass density,"[2]; 313.15 K, x1 = 0.0873",753.62 ± 0.26 kg/m3
CCCCN [1-butanamine] + c1ccccc1,mass density,"[2]; 303.15 K, x1 = 0.0094",866.8 ± 0.25 kg/m3
same,mass density,"[2]; 303.15 K, x1 = 0.0195",865.19 ± 0.25 kg/m3
same,mass density,"[2]; 303.15 K, x1 = 0.0284",863.77 ± 0.25 kg/m3
same,mass density,"[2]; 303.15 K, x1 = 0.038",862.3 ± 0.25 kg/m3
same,mass density,"[2]; 303.15 K, x1 = 0.048",860.74 ± 0.25 kg/m3
same,mass density,"[2]; 303.15 K, x1 = 0.0588",859.06 ± 0.26 kg/m3
same,mass density,"[2]; 303.15 K, x1 = 0.0669",857.8 ± 0.26 kg/m3
same,mass density,"[2]; 303.15 K, x1 = 0.0764",856.32 ± 0.26 kg/m3
same,mass density,"[2]; 303.15 K, x1 = 0.0859",854.84 ± 0.26 kg/m3
same,mass density,"[2]; 313.15 K, x1 = 0.0094",856.12 ± 0.25 kg/m3
same,mass density,"[2]; 313.15 K, x1 = 0.0195",854.55 ± 0.25 kg/m3
same,mass density,"[2]; 313.15 K, x1 = 0.0284",853.17 ± 0.25 kg/m3
same,mass density,"[2]; 313.15 K, x1 = 0.038",851.7 ± 0.25 kg/m3
same,mass density,"[2]; 313.15 K, x1 = 0.048",850.16 ± 0.25 kg/m3
same,mass density,"[2]; 313.15 K, x1 = 0.0588",848.5 ± 0.26 kg/m3
same,mass density,"[2]; 313.15 K, x1 = 0.0669",847.27 ± 0.26 kg/m3
same,mass density,"[2]; 313.15 K, x1 = 0.0764",845.82 ± 0.26 kg/m3
same,mass density,"[2]; 313.15 K, x1 = 0.0859",844.4 ± 0.26 kg/m3
c1ccccc1 [benzene],mass density,[1]; 303.15 K,868.3 ± 0.24 kg/m3
same,mass density,[1]; 313.15 K,857.59 ± 0.24 kg/m3
C1CCCCC1 [cyclohexane],mass density,[1]; 303.15 K,769.1 ± 0.25 kg/m3
same,mass density,[1]; 313.15 K,759.52 ± 0.25 kg/m3
CCCCNCCCC [dibutylamine],mass density,[1]; 303.15 K,752.28 ± 0.42 kg/m3
same,mass density,[1]; 313.15 K,743.44 ± 0.41 kg/m3
CCCCNCCCC [dibutylamine] + C1CCCCC1,mass density,"[2]; 303.15 K, x1 = 0.0109",768.53 ± 0.25 kg/m3
same,mass density,"[2]; 303.15 K, x1 = 0.0204",768.07 ± 0.25 kg/m3
same,mass density,"[2]; 303.15 K, x1 = 0.0298",767.62 ± 0.25 kg/m3
same,mass density,"[2]; 303.15 K, x1 = 0.0392",767.24 ± 0.26 kg/m3
same,mass density,"[2]; 303.15 K, x1 = 0.0493",766.84 ± 0.26 kg/m3
same,mass density,"[2]; 303.15 K, x1 = 0.0583",766.46 ± 0.26 kg/m3
same,mass density,"[2]; 303.15 K, x1 = 0.0689",766.05 ± 0.26 kg/m3
same,mass density,"[2]; 303.15 K, x1 = 0.0797",765.6 ± 0.26 kg/m3
same,mass density,"[2]; 303.15 K, x1 = 0.0881",765.27 ± 0.26 kg/m3
same,mass density,"[2]; 313.15 K, x1 = 0.0109",759.01 ± 0.25 kg/m3
same,mass density,"[2]; 313.15 K, x1 = 0.0204",758.59 ± 0.25 kg/m3
same,mass density,"[2]; 313.15 K, x1 = 0.0298",758.19 ± 0.26 kg/m3
same,mass density,"[2]; 313.15 K, x1 = 0.0392",757.79 ± 0.26 kg/m3
same,mass density,"[2]; 313.15 K, x1 = 0.0493",757.36 ± 0.26 kg/m3
same,mass density,"[2]; 313.15 K, x1 = 0.0583",756.99 ± 0.26 kg/m3
same,mass density,"[2]; 313.15 K, x1 = 0.0689",756.55 ± 0.26 kg/m3
same,mass density,"[2]; 313.15 K, x1 = 0.0797",756.11 ± 0.26 kg/m3
same,mass density,"[2]; 313.15 K, x1 = 0.0881",755.77 ± 0.26 kg/m3
